Assay results taken from US20230398130A1, “METHODS AND COMPOSITIONS FOR DIFFERENTIATING STEM CELLS” (Massachusetts Institute of Technology, priority 2020, published 2023).

Tests used:
ISC-enriched organoids [1] = assay: Primary screen, 384-well 2.5-D organoid differentiation (ENR+CD, 6 days): carbachol-induced lysozyme secretion (LYZ.S); type: cell-based, murine; details: for Z.LYZ.S: standard z score; for SSMD.LYZ.S: strictly standardized mean difference; for Dose.FC.LYZ.S: FC vs plate median
Source text: (§1) High-throughput screening.

ISC-enriched organoids [2] = assay: Primary screen, 384-well 2.5-D organoid differentiation (ENR+CD, 6 days): basal lysozyme secretion (LYZ.NS); type: cell-based, murine; details: for SSMD.LYZ.NS: strictly standardized mean difference; for Dose.FC.LYZ.NS: FC vs plate median
Source text: as §1

ISC-enriched organoids [3] = assay: Primary screen, 384-well 2.5-D organoid differentiation (ENR+CD, 6 days, Target Selective Inhibitor Library, vs whole-plate median): ATP (CellTiter-Glo 3D, CTG); details: for SSMD.CTG: strictly standardized mean difference; for Dose.FC.CTG: FC vs plate median
[4] = primary screen, 1st of the 4 dose lines of the treatment (dose not given)
[5] = primary screen, 2nd of the 4 dose lines of the treatment (dose not given)
[6] = primary screen, 3rd of the 4 dose lines of the treatment (dose not given)
[7] = primary screen, 4th of the 4 dose lines of the treatment (dose not given)
[8] = Dose 0.08 uM, standard z score of FC
[9] = Dose 0.40 uM, standard z score of FC
[10] = Dose 2.00 uM, standard z score of FC
[11] = Dose 10.00 uM, standard z score of FC
[12] = Dose 0.08 uM, primary screen, standard z score
[13] = Dose 0.40 uM, primary screen, standard z score
[14] = Dose 2.00 uM, primary screen, standard z score
[15] = Dose 10.00 uM, primary screen, standard z score

SMILES	Z.CTG (ISC-enriched organoids [3]; [8])	Z.CTG (ISC-enriched organoids [3]; [9])	Z.CTG (ISC-enriched organoids [3]; [10])	Z.CTG (ISC-enriched organoids [3]; [11])	Z.LYZ.NS (ISC-enriched organoids [2]; [8])	Z.LYZ.NS (ISC-enriched organoids [2]; [9])	Z.LYZ.NS (ISC-enriched organoids [2]; [10])	Z.LYZ.NS (ISC-enriched organoids [2]; [11])	Dose.FC.LYZ.S (ISC-enriched organoids [1]; Dose 0.08 uM, primary screen) [log 2 fold change]	Dose.FC.LYZ.S (ISC-enriched organoids [1]; Dose 0.40 uM, primary screen) [log 2 fold change]	Dose.FC.LYZ.S (ISC-enriched organoids [1]; Dose 2.00 uM, primary screen) [log 2 fold change]	Dose.FC.LYZ.S (ISC-enriched organoids [1]; Dose 10.00 uM, primary screen) [log 2 fold change]	Dose.FC.LYZ.NS (ISC-enriched organoids [2]; Dose 0.08 uM, primary screen) [log 2 fold change]	Dose.FC.LYZ.NS (ISC-enriched organoids [2]; Dose 0.40 uM, primary screen) [log 2 fold change]	Dose.FC.LYZ.NS (ISC-enriched organoids [2]; Dose 2.00 uM, primary screen) [log 2 fold change]	Dose.FC.LYZ.NS (ISC-enriched organoids [2]; Dose 10.00 uM, primary screen) [log 2 fold change]	Dose.FC.CTG (ISC-enriched organoids [3]; Dose 0.08 uM, primary screen) [log 2 fold change]	Dose.FC.CTG (ISC-enriched organoids [3]; Dose 0.40 uM, primary screen) [log 2 fold change]	Dose.FC.CTG (ISC-enriched organoids [3]; Dose 2.00 uM, primary screen) [log 2 fold change]	Dose.FC.CTG (ISC-enriched organoids [3]; Dose 10.00 uM, primary screen) [log 2 fold change]	also measured
C=CCn1c(=O)c2cnc(Nc3ccc(N4CCN(C)CC4)cc3)nc2n1-c1cccc(C(C)(C)O)n1 [MK-1775]	0.393	−1.074	−1.919	−2.451																	Z.LYZ.S (ISC-enriched organoids [1]; [4]): 0.424; Z.LYZ.S (ISC-enriched organoids [1]; [5]): −1.404; Z.LYZ.S (ISC-enriched organoids [1]; [6]): −1.345; Z.LYZ.S (ISC-enriched organoids [1]; [7]): −1.643; SSMD.LYZ.S (ISC-enriched organoids [1]; [4]): 0.440; SSMD.LYZ.S (ISC-enriched organoids [1]; [5]): −1.378; SSMD.LYZ.S (ISC-enriched organoids [1]; [6]): −1.357; SSMD.LYZ.S (ISC-enriched organoids [1]; [7]): −1.331; SSMD.LYZ.NS (ISC-enriched organoids [2]; [4]): 0.317; SSMD.LYZ.NS (ISC-enriched organoids [2]; [5]): −1.150; SSMD.LYZ.NS (ISC-enriched organoids [2]; [6]): −1.545; SSMD.LYZ.NS (ISC-enriched organoids [2]; [7]): −0.993; SSMD.CTG (ISC-enriched organoids [3]; [4]): 0.536; SSMD.CTG (ISC-enriched organoids [3]; [5]): −1.242; SSMD.CTG (ISC-enriched organoids [3]; [6]): −1.697; SSMD.CTG (ISC-enriched organoids [3]; [7]): −1.818
C=CC(=O)Nc1cccc(Nc2nc(Nc3ccc(Oc4ccnc(C(=O)NC)c4)cc3)ncc2F)c1 [CNX-774]	0.619	0.422	−0.260	−0.194	0.655	−0.067	1.378	−0.376													Dose.FC.LYZ.S (ISC-enriched organoids [1]; Dose 0.08 uM, ENR+CD, 6 days): 0.014 log 2 fold change; Dose.FC.LYZ.S (ISC-enriched organoids [1]; Dose 0.40 uM, ENR+CD, 6 days): −0.027 log 2 fold change; Dose.FC.LYZ.S (ISC-enriched organoids [1]; Dose 2.00 uM, ENR+CD, 6 days): 0.082 log 2 fold change; Dose.FC.LYZ.S (ISC-enriched organoids [1]; Dose 10.00 uM, ENR+CD, 6 days): −0.089 log 2 fold change; Dose.FC.LYZ.NS (ISC-enriched organoids [2]; Dose 0.08 uM, ENR+CD, 6 days): 0.075 log 2 fold change; Dose.FC.LYZ.NS (ISC-enriched organoids [2]; Dose 0.40 uM, ENR+CD, 6 days): −0.008 log 2 fold change; Dose.FC.LYZ.NS (ISC-enriched organoids [2]; Dose 2.00 uM, ENR+CD, 6 days): 0.158 log 2 fold change; Dose.FC.LYZ.NS (ISC-enriched organoids [2]; Dose 10.00 uM, ENR+CD, 6 days): −0.043 log 2 fold change; Dose.FC.CTG (ISC-enriched organoids [3]; Dose 0.08 uM, ENR+CD, 6 days): 0.259 log 2 fold change; Dose.FC.CTG (ISC-enriched organoids [3]; Dose 0.40 uM, ENR+CD, 6 days): 0.177 log 2 fold change; Dose.FC.CTG (ISC-enriched organoids [3]; Dose 2.00 uM, ENR+CD, 6 days): −0.109 log 2 fold change; Dose.FC.CTG (ISC-enriched organoids [3]; Dose 10.00 uM, ENR+CD, 6 days): −0.081 log 2 fold change
CCN(CC)CCCC(C)Nc1nc(C)cc(Nc2ccc3nc(C)cc(N)c3c2)n1 (centres unmarked) [NSC 23766]	0.103	0.406	0.279	0.774	0.701	0.380	0.506	0.080	0.080	0.090	0.031	0.030	0.081	0.044	0.058	0.009	0.043	0.170	0.117	0.324	
CC(C)c1noc(N2CCC(COc3ccc(-c4ccc(S(C)(=O)=O)cc4)nc3)CC2)n1 [GSK1292263]									0.111	0.101	0.060	0.027	0.078	0.050	0.028	0.020	0.161	0.192	0.224	0.196	Z.LYZ.NS (ISC-enriched organoids [2]; [12]): 0.681; Z.LYZ.NS (ISC-enriched organoids [2]; [13]): 0.434; Z.LYZ.NS (ISC-enriched organoids [2]; [14]): 0.240; Z.LYZ.NS (ISC-enriched organoids [2]; [15]): 0.173; Z.CTG (ISC-enriched organoids [3]; [12]): 0.384; Z.CTG (ISC-enriched organoids [3]; [13]): 0.458; Z.CTG (ISC-enriched organoids [3]; [14]): 0.535; Z.CTG (ISC-enriched organoids [3]; [15]): 0.468
